Reference: patent US6392098B1, “Conformationally restricted polyamines” (Wisconsin Alumni Research Foundation, priority 1997, dated 2002)
Where a name gives a salt, the structure may show the parent alone.

Key:
[1] = test system: brain cancer cells U251MG-NCI; test: Growth of U251MG-NCI cells at fixed drug concentration (viable cells over days); format: cell-based, human
Method: FIGS. 7 and 8 depict the effect of fixed doses of 10 μM and 40 μM of the subject compounds, respectively, on the growth of the human brain cancer cell line U251MG-NCI. Here, the X-axis represents time in days, and the Y-axis represents the total number of viable cells.
Human breast cancer cell line MCF7 was grown in Richter's Improved Modified Eagle's Medium supplemented with 10% fetal bovine serum (FBS) and 2.2 g/L sodium bicarbonate. Human brain cancer cell line U251MG-NCI was grown in Dulbecco's Modified Eagle's Medium supplemented with 10% FBS. Human lung cancer cell line A549 was grown in Ham's F-12K medium (Fisher Scientific, Itasca, Ill.), supplemented with 10% FBS and 2 mM L-glutamine. Human colon cancer cell line HT29 was cultured in McCoy's 5A medium (Gibco, BRL, Gaithersburg, Md.), supplemented with 10% FBS. Human prostate cancer cell line PC3 was grown in Dulbecco's Modified Eagles Medium supplemented with 5% FBS. The A549 and MCF7 cell lines were cultured in 100 units/mL penicillin and 100 μg/mL streptomycin. HT29 and U251MG cell lines were grown in 50 μg/mL gentamycin. PC3 cell lines were maintained in 1% antibiotic-antimycotic solution (Sigma, St. Louis, Mo.). […]
Here, the above-identified compounds were administered in a 10 μM dose to cultures of the human brain cancer cell line U251MG-NCI and evaluated according to the standard protocol described above. […]

[2] = test system: human brain cancer cells U251 MG; test: MTT cell survival assay, U251MG NCI; format: cell-based; conditions: six days after drug treatment, read-out: Cytotoxic Activity Human Tumor Cell Lines ID50 U251MG NCl
Method: Human breast cancer cell line MCF7 was grown in Richter's Improved Modified Eagle's Medium supplemented with 10% fetal bovine serum (FBS) and 2.2 g/L sodium bicarbonate. Human brain cancer cell line U251MG-NCI was grown in Dulbecco's Modified Eagle's Medium supplemented with 10% FBS. […] Human prostate cancer cell line PC3 was grown in Dulbecco's Modified Eagles Medium supplemented with 5% FBS. […] The cell cultures were maintained at 37° C. in 5% CO2/95% humidified air.
Here, a conventional MTT assay was used to evaluate percent cell survival. Exponentially growing monolayer cells were plated in 96-well plates at a density of 500 cells per well and allowed to grow for 24 hours. Serial dilutions of the drugs were added to the wells. Six days after drug treatment, 25 μl of MTT solution (5 mg/ml) was added to each well and incubated for 4 hours at 37° C. Then 100 μl of lysis buffer (20% sodium dodecyl sulfate, 50% DMF, and 0.8% acetic acid, pH 4.7) was added to each well and incubated for an additional 22 hours. A microplate reader (“EMAX”-brand, Molecular Devices, Sunnyvale, Calif.) set at 570 nm was used to determine the optical density of the cultures. Results are expressed as a ratio of the optical density in drug-treated wells to the optical density in wells treated with vehicle only.
The ID50 is the drug concentration that killed 50% of the cultured cells.

melting point	Structure (SMILES)	further results
240 °C (dec.)	CCNCCCNC[C@@H]1C[C@@H]1CNCCCNCC (as salt: hydrochloride) [SL-11037, N-Ethyl-N′-(2-(3′-ethylamino-propylaminomethyl)-cis-cyclopropylmethyl)-propane 1,3-diamine tetrahydrochloride]	–
270 °C (dec.)	CCNCCCNCC1CC1CNCCCNCC (stereo not drawn) (as salt: hydrochloride) [SL-11038, N-Ethyl-N′-(2-(3′-ethylamino-propylaminomethyl)-trans-cyclopropylmethyl)-propane-1,3-diamine tetrahydrochloride]	–
92 to 93 °C	CCNCCCNC[C@H]1CC[C@H]1CNCCCNCC (as salt: hydrochloride) [SL-11043, N-Ethyl-N′-(2-(3′-ethylamino-propylaminomethyl)-cis-cyclobutylmethyl)-propane1,3-diamine tetrahydrochloride]	–
77 to 78 °C	CCNCCCNCC1CCC1CNCCCNCC (stereo not drawn) (as salt: hydrochloride) [SL-11044, N-Ethyl-N′-(2-(3′-ethylamino-propylaminomethyl)-trans-cyclobutylmethyl)-propane1,3-diamine tetrahydrochloride]	–
240 °C (dec.)	CCNCCCNC1CC1NCCCNCC (centres unmarked) [SL-11027]	effect on growth of U251MG-NCI cells ([1]; 10 μM concentration): marked inhibition of cell growth
–	CCNCCCNC1CCC1NCCCNCC (centres unmarked) [SL-11034]	effect on growth of U251MG-NCI cells ([1]; 40 μM concentration): marked inhibition of cell growth
–	CCNCCCNCC1CC1CNCCCNCC (stereo not drawn) [SL-11038, N-Ethyl-N′-(2-(3′-ethylamino-propylaminomethyl)-trans-cyclopropylmethyl)-propane-1,3-diamine tetrahydrochloride]	IC50 [2]: 100 nM
